For series [1] the following is noted: approximately 7-10 mg/kg/day, intravenous as TIMENTIN; cited from earlier work.
A further series concerns bacteria. The following applies: cited from earlier work.
A further series has as its system male golden hamsters. The series is described as follows: Resident/intruder paradigm of offensive aggression. It is filed as in vivo, Syrian golden hamsters (Mesocricetus auratus).
Series [2] concerns adolescent male rhesus macaques. The series can be described thus: Social behavior in non-human primates. Format: in vivo. To be noted: 1 mg/kg IM. Here is the method: Eight, two year old adolescent male rhesus macaques were tested with Mox. Animals were raised with their mothers in a group setting at a field station. At one year of age, they were transferred to individual cages. Each day thereafter, they were paired housed for two-three hrs. The adolescent partners were always the same. […] The display of social behaviors in this arrangement are very robust because of the limited amount of time the monkeys spend together. During the experiment the monkeys were paired in the “play-cage” where they were video taped for one hour. The study was designed so that behavioral data were obtained for each monkey under Mox and vehicle treatment. The treatment was an ABA type schedule of administration: Day 1—one member of each pair received 0.9% NaCl vehicle, Day 2—drug, Day 3—vehicle. Only one member of a pair was injected on a test day. The other member of a pair was injected a week later according to the same ABA schedule. […] Animals were video taped sixty minutes after injection for a one hr observation period. Animals were scored for over forty different behaviors (Winslow et al., 1988). Only twenty-eight are listed on TABLE I. The unreported behaviors, e.g., self-bites, vocalizations, clinging, mounts, escapes, self grooming were so infrequent that they were omitted from the analysis. Paired t-test was run for each behavioral measure.

In the next series the test system is gram-negative meningitis. To be noted: 241 of 260; 4 g every 8 hrs for 2-3 weeks; cited from earlier work.
The test system of the next series is vasopressin V1A receptor. The series is described as follows: Membrane binding assay, competition for I125 HO-LVA. The following applies: 1 μM, hamster liver membrane preparation. From the text:
(§1) Vasopressin and serotonin are both critical neurotransmitters in the control of offensive aggression in male hamsters (Ferris et al., 1998). These two neurotransmitters also are implicated in the control of human aggression (Coccaro et al., 1998). Vasopressin facilitates aggressive behavior while serotonin inhibits aggression, in part, by inhibiting the activity of the vasopressin system. Blockade of vasopressin V1A receptors and stimulation of serotonin 5HT1A receptors in the anterior hypothalamus blocks offensive aggression (Ferris et al., 1999). […] To test this notion Mox was tested in a membrane binding assay for competition for the V1A receptor (Ferris et al., 1994) and in a receptor autoradiography assay for competition for the 5HT1A receptors (Ferris et al., 1999).

Series [3] deals with serotonin 5HT1A receptors. The series is described as follows: Receptor autoradiography, competition for I125 DPAT. It is filed as binding. The following applies: tissue sections of the hamster brain.
Description: as §1

The mark [4] stands for this setting: 50 μg/kg IP, 90 min, thirteen hamsters.

Regarding `O=C(O)[C@H]1/C(=C/CO)O[C@@H]2CC(=O)N21` [CLAV, Clavulanic acid], the “adverse reactions or contraindications” value in series [1] is “no reported adverse reactions or contraindications”. Moreover, in the series on bacteria, the antibacterial activity result is on record as “weak antibacterial activity”. Moreover, in the series with male golden hamsters (CLAV 200 μg/kg IP, 90 min), the “contact time with the intruder” value is “no significant main effect” and the flank marking result is reported as “no significant effect”. The “latency to bite the intruder” value with male golden hamsters (CLAV 200 μg/kg IP, 90 min, trend toward significance) is given as “no significant main effect”. The “median number of bites” value in the series on male golden hamsters (CLAV 200 μg/kg IP, 90 min, thirteen for vehicle) is “six”. Moreover, in the series on male golden hamsters (pilot studies, 1.0 μg/kg IP), the aggressive behavior result is “no effect”.

As to `CO[C@@]1(NC(=O)C(C(=O)O)c2ccc(O)cc2)C(=O)N2C(C(=O)O)=C(CSc3nnnn3C)CO[C@@H]21` (stereo partly drawn) [Mox, 7-β-[2-carboxy-2-(4-hydroxyphenyl)acetamido]-7α-methoxy-3-[[(1-methyl-1H-tetrazol-5-yl)thio]methyl]-1-oxa-1-dethia-3-cephem-4-carboxylic acid], the allogrooming result in series [2] is “no effect”. In series [2] (sixty minutes after injection, one hr observation), the “duration of play fighting” value is on record as “significantly reduced”. For the same compound, the “patients with satisfactory response to antibiotic therapy” value in the series on gram-negative meningitis is reported as 93%. Also, the “displacement of I125 HO-LVA binding” value in the series on vasopressin V1A receptor is given as “did not significantly displace”. Moreover, the bite latency entry in the series on male golden hamsters (setting [4]) is reported as “significantly increased”; in the series on male golden hamsters (dose response, 500 μg and 5.0 mg), “significantly increased”. Further, the contact time entry with male golden hamsters (setting [4]) is “no significant change”; in the series with male golden hamsters (50 mg/kg IP, 90 min) it was “significantly reduced”; with male golden hamsters (dose response, 500 μg and 5 mg), “significantly reduced”; in the series on male golden hamsters (equimolar (90 μM) IP, 90 min), “no significant treatment effect”. Moreover, the flank marking result is “no significant change” with male golden hamsters (setting [4]); “did not reach significance” in the series on male golden hamsters (50 mg/kg IP, 90 min); “not significantly different” in the series with male golden hamsters (dose response, 0.5-5000 μg/kg, between groups); “no significant treatment effect” with male golden hamsters (equimolar (90 μM) IP, 90 min). Moreover, the number of bites result in the series with male golden hamsters (setting [4]) is listed as “reduced”; with male golden hamsters (50 mg/kg IP, 90 min, 10 min observation), “significantly reduced”; in the series with male golden hamsters (dose response, 50 μg), “significant reduction”; in the series with male golden hamsters (equimolar (90 μM) IP, 90 min) it was “significantly reduced”. The “mean latency to bite” value in the series on male golden hamsters (50 mg/kg IP, 90 min after treatment, 10 min observation, vs saline) was “over six”. The “animals that never bite in the 10 min observation period” value in the series with male golden hamsters (dose response, 50 μg) is “three of six”. In addition, in the series on male golden hamsters (dose response, 50 μg/kg), the “delay of bite latency vs vehicle” value was “over seven”. Also, the “behavioral measures of offensive aggression” value in the series on male golden hamsters (dose response, doses of 5.0 μg and less) is listed as “no effect”. The latency to bite entry in the series with male golden hamsters (equimolar (90 μM, equal to 50 μg/kg Mox) IP, 90 min) was “significantly delayed”. Moreover, the “reduction of specific binding of I125 DPAT” value in series [3] is reported as “ineffective”.
